The source made the active and inactive calls. The rule behind the calls is not given here.
What was measured:
Type in all cases: functional
Staphylococcus aureus [1] = experiment: Antibacterial activity against Staphylococcus aureus assessed as growth inhibition at 600 ug/ml by NCCLS […] method; conditions: read-out: IZ
Exserohilum rostratum [2] = experiment: Antifungal activity against Setosphaeria rostrata assessed as growth inhibition at 600 ug/ml; conditions: read-out: IZ
Bacillus pumilus [3] = experiment: Antibacterial activity against Bacillus pumilus assessed as growth inhibition at 900 ug/ml by NCCLS […] method; conditions: read-out: IZ
Colletotrichum falcatum [4] = experiment: Antifungal activity against Glomerella tucumanensis assessed as growth inhibition at 900 ug/ml; conditions: read-out: IZ
Fusarium oxysporum [5] = experiment: Antifungal activity against Fusarium oxysporum assessed as growth inhibition at 900 ug/ml; conditions: for zone of inhibition at 900 µg/mL: read-out: IZ
Fusarium oxysporum [6] = experiment: Antifungal activity against Fusarium oxysporum assessed as growth inhibition at 1200 ug/ml; conditions: for zone of inhibition at 1200 µg/mL: read-out: IZ
Streptococcus pyogenes [7] = experiment: Antibacterial activity against Streptococcus pyogenes assessed as growth inhibition at 600 ug/ml by NCCLS […] method; conditions: read-out: IZ
Colletotrichum falcatum [8] = experiment: Antifungal activity against Glomerella tucumanensis assessed as growth inhibition at 1200 ug/ml; conditions: read-out: IZ
Bacillus subtilis [9] = experiment: Antibacterial activity against Bacillus subtilis assessed as growth inhibition at 900 ug/ml by NCCLS […] method; conditions: read-out: IZ
Klebsiella aerogenes [10] = experiment: Antibacterial activity against Enterobacter aerogenes assessed as growth inhibition at 900 ug/ml by NCCLS […] method; conditions: read-out: IZ
Fusarium oxysporum [11] = experiment: Antifungal activity against Fusarium oxysporum assessed as growth inhibition at 600 ug/ml; conditions: for zone of inhibition at 600 µg/mL: read-out: IZ
Fusarium oxysporum [12] = experiment: Antifungal activity against Fusarium oxysporum assessed as growth inhibition at 300 ug/ml; conditions: for zone of inhibition at 300 µg/mL: read-out: IZ
Colletotrichum falcatum [13] = experiment: Antifungal activity against Glomerella tucumanensis assessed as growth inhibition at 600 ug/ml; conditions: read-out: IZ
Staphylococcus aureus [14] = experiment: Antibacterial activity against Staphylococcus aureus assessed as growth inhibition at 900 ug/ml by NCCLS […] method; conditions: read-out: IZ
Candida albicans [15] = experiment: Antifungal activity against Candida albicans assessed as growth inhibition at 900 ug/ml; conditions: for zone of inhibition at 900 µg/mL: read-out: IZ
Exserohilum rostratum [16] = experiment: Antifungal activity against Setosphaeria rostrata assessed as growth inhibition at 1200 ug/ml; conditions: read-out: IZ
Klebsiella aerogenes [17] = experiment: Antibacterial activity against Enterobacter aerogenes assessed as growth inhibition at 600 ug/ml by NCCLS […] method; conditions: read-out: IZ
Escherichia coli [18] = experiment: Antibacterial activity against Escherichia coli assessed as growth inhibition at 600 ug/ml by NCCLS […] method; conditions: for zone of inhibition at 600 µg/mL: read-out: IZ
Escherichia coli [19] = experiment: Antibacterial activity against Escherichia coli assessed as growth inhibition at 900 ug/ml by NCCLS […] method; conditions: for zone of inhibition at 900 µg/mL: read-out: IZ
Candida albicans [20] = experiment: Antifungal activity against Candida albicans assessed as growth inhibition at 1200 ug/ml; conditions: for zone of inhibition at 1200 µg/mL: read-out: IZ
Streptococcus pyogenes [21] = experiment: Antibacterial activity against Streptococcus pyogenes assessed as growth inhibition at 900 ug/ml by NCCLS […] method; conditions: read-out: IZ
Priestia megaterium [22] = experiment: Antibacterial activity against Bacillus megaterium assessed as growth inhibition at 600 ug/ml by NCCLS […] method; conditions: read-out: IZ
Proteus vulgaris [23] = experiment: Antibacterial activity against Proteus vulgaris assessed as growth inhibition at 600 ug/ml by NCCLS […] method; conditions: read-out: IZ
Klebsiella pneumoniae [24] = experiment: Antibacterial activity against Klebsiella pneumoniae assessed as growth inhibition at 900 ug/ml by NCCLS […] method; conditions: read-out: IZ
Bacillus subtilis [25] = experiment: Antibacterial activity against Bacillus subtilis assessed as growth inhibition at 600 ug/ml by NCCLS […] method; conditions: read-out: IZ
Proteus mirabilis [26] = experiment: Antibacterial activity against Proteus mirabilis assessed as growth inhibition at 600 ug/ml by NCCLS […] method; conditions: read-out: IZ
Colletotrichum falcatum [27] = experiment: Antifungal activity against Glomerella tucumanensis assessed as growth inhibition at 300 ug/ml; conditions: read-out: IZ
Bacillus pumilus [28] = experiment: Antibacterial activity against Bacillus pumilus assessed as growth inhibition at 600 ug/ml by NCCLS […] method; conditions: read-out: IZ
Proteus mirabilis [29] = experiment: Antibacterial activity against Proteus mirabilis assessed as growth inhibition at 900 ug/ml by NCCLS […] method; conditions: read-out: IZ
Exserohilum rostratum [30] = experiment: Antifungal activity against Setosphaeria rostrata assessed as growth inhibition at 300 ug/ml; conditions: read-out: IZ
Klebsiella pneumoniae [31] = experiment: Antibacterial activity against Klebsiella pneumoniae assessed as growth inhibition at 600 ug/ml by NCCLS […] method; conditions: read-out: IZ
Exserohilum rostratum [32] = experiment: Antifungal activity against Setosphaeria rostrata assessed as growth inhibition at 900 ug/ml; conditions: read-out: IZ
Priestia megaterium [33] = experiment: Antibacterial activity against Bacillus megaterium assessed as growth inhibition at 900 ug/ml by NCCLS […] method; conditions: read-out: IZ
Candida albicans [34] = experiment: Antifungal activity against Candida albicans assessed as growth inhibition at 600 ug/ml; conditions: for zone of inhibition at 600 µg/mL: read-out: IZ
Candida albicans [35] = experiment: Antifungal activity against Candida albicans assessed as growth inhibition at 300 ug/ml; conditions: for zone of inhibition at 300 µg/mL: read-out: IZ
Proteus vulgaris [36] = experiment: Antibacterial activity against Proteus vulgaris assessed as growth inhibition at 900 ug/ml by NCCLS […] method; conditions: read-out: IZ

| SMILES | zone of inhibition at 600 µg/mL (Staphylococcus aureus [1]) [mm] | zone of inhibition at 600 µg/mL (Exserohilum rostratum [2]) [mm] | zone of inhibition at 900 µg/mL (Bacillus pumilus [3]) [mm] | zone of inhibition at 900 µg/mL (Colletotrichum falcatum [4]) [mm] | zone of inhibition at 600 µg/mL (Streptococcus pyogenes [7]) [mm] | zone of inhibition at 1200 µg/mL (Colletotrichum falcatum [8]) [mm] | zone of inhibition at 900 µg/mL (Bacillus subtilis [9]) [mm] | zone of inhibition at 900 µg/mL (Klebsiella aerogenes [10]) [mm] | zone of inhibition at 600 µg/mL (Colletotrichum falcatum [13]) [mm] | zone of inhibition at 900 µg/mL (Staphylococcus aureus [14]) [mm] | zone of inhibition at 1200 µg/mL (Exserohilum rostratum [16]) [mm] | zone of inhibition at 600 µg/mL (Klebsiella aerogenes [17]) [mm] | zone of inhibition at 900 µg/mL (Streptococcus pyogenes [21]) [mm] | zone of inhibition at 600 µg/mL (Priestia megaterium [22]) [mm] | zone of inhibition at 600 µg/mL (Proteus vulgaris [23]) [mm] | zone of inhibition at 900 µg/mL (Klebsiella pneumoniae [24]) [mm] | zone of inhibition at 600 µg/mL (Bacillus subtilis [25]) [mm] | zone of inhibition at 600 µg/mL (Proteus mirabilis [26]) [mm] | zone of inhibition at 300 µg/mL (Colletotrichum falcatum [27]) [mm] | zone of inhibition at 600 µg/mL (Bacillus pumilus [28]) [mm] | other results |
| --- | --- | --- | --- | --- | --- | --- | --- | --- | --- | --- | --- | --- | --- | --- | --- | --- | --- | --- | --- | --- | --- |
| COc1ccc(CN2CCN(CCCOc3c(-c4ccccc4)c(=O)oc4cc(OC)ccc34)CC2)cc1 | 3 | 7.56 | 10.5 | 17 | 2.08 | 31.8 | 8.9 | 8.9 | 8.62 | 6.25 | 28.8 | 4.24 | 4.19 | 4.26 | 2 | 10.1 | 4.28 | 5.25 | 4.08 | 5.25 | growth inhibition (GI) (Fusarium oxysporum [5]): inactive; growth inhibition (GI) (Fusarium oxysporum [6]): inactive; growth inhibition (GI) (Fusarium oxysporum [11]): inactive; growth inhibition (GI) (Fusarium oxysporum [12]): inactive; zone of inhibition at 900 µg/mL (Candida albicans [15]): 11 mm; growth inhibition (GI) (Escherichia coli [18]): inactive; growth inhibition (GI) (Escherichia coli [19]): inactive; zone of inhibition at 1200 µg/mL (Candida albicans [20]): 23.2 mm; zone of inhibition at 900 µg/mL (Proteus mirabilis [29]): 10.5 mm; zone of inhibition at 300 µg/mL (Exserohilum rostratum [30]): 3.8 mm; zone of inhibition at 600 µg/mL (Klebsiella pneumoniae [31]): 5.48 mm; zone of inhibition at 900 µg/mL (Exserohilum rostratum [32]): 15 mm; zone of inhibition at 900 µg/mL (Priestia megaterium [33]): 8.19 mm; zone of inhibition at 600 µg/mL (Candida albicans [34]): 5.62 mm; zone of inhibition at 300 µg/mL (Candida albicans [35]): 2.76 mm; zone of inhibition at 900 µg/mL (Proteus vulgaris [36]): 4.25 mm |
| COc1ccc2c(OCCCN3CCN(Cc4ccc(Cl)cc4Cl)CC3)c(-c3ccccc3)c(=O)oc2c1 | 6.5 | 5.76 | 4.28 | 13.8 | 3.27 | 26.4 | 12.1 | 8.08 | 6.5 | 12 | 23.2 | 4.25 | 6.25 | 6.3 | 4.02 | 14 | 9.02 | 4.91 | 3.25 | 2.01 | zone of inhibition at 900 µg/mL (Fusarium oxysporum [5]): 13.6 mm; zone of inhibition at 1200 µg/mL (Fusarium oxysporum [6]): 25.8 mm; zone of inhibition at 600 µg/mL (Fusarium oxysporum [11]): 6.25 mm; zone of inhibition at 300 µg/mL (Fusarium oxysporum [12]): 3.08 mm; zone of inhibition at 900 µg/mL (Candida albicans [15]): 9.56 mm; zone of inhibition at 600 µg/mL (Escherichia coli [18]): 7.02 mm; zone of inhibition at 900 µg/mL (Escherichia coli [19]): 14.1 mm; zone of inhibition at 1200 µg/mL (Candida albicans [20]): 17.2 mm; zone of inhibition at 900 µg/mL (Proteus mirabilis [29]): 9.01 mm; zone of inhibition at 300 µg/mL (Exserohilum rostratum [30]): 2.89 mm; zone of inhibition at 600 µg/mL (Klebsiella pneumoniae [31]): 8.82 mm; zone of inhibition at 900 µg/mL (Exserohilum rostratum [32]): 11.6 mm; zone of inhibition at 900 µg/mL (Priestia megaterium [33]): 12 mm; zone of inhibition at 600 µg/mL (Candida albicans [34]): 4.89 mm; zone of inhibition at 300 µg/mL (Candida albicans [35]): 2.01 mm; zone of inhibition at 900 µg/mL (Proteus vulgaris [36]): 8.04 mm |
| CCCOc1ccc(CN2CCN(CCCOc3c(-c4ccccc4)c(=O)oc4cc(OC)ccc34)CC2)cc1 | 1.55 | 6.02 | 6.8 | 16.8 | 3.25 | 32.5 | 4.25 | 4.02 | 7.6 | 3.25 | 28.6 | 2 | 6.84 | 4.2 | 4.2 | 4.25 | 2.5 | 1.02 | 4.49 | 3.2 | zone of inhibition at 900 µg/mL (Fusarium oxysporum [5]): 12.1 mm; zone of inhibition at 1200 µg/mL (Fusarium oxysporum [6]): 19.8 mm; zone of inhibition at 600 µg/mL (Fusarium oxysporum [11]): 4.92 mm; zone of inhibition at 300 µg/mL (Fusarium oxysporum [12]): 2.48 mm; growth inhibition (GI) (Candida albicans [15]): inactive; zone of inhibition at 600 µg/mL (Escherichia coli [18]): 1.25 mm; zone of inhibition at 900 µg/mL (Escherichia coli [19]): 3.49 mm; growth inhibition (GI) (Candida albicans [20]): inactive; zone of inhibition at 900 µg/mL (Proteus mirabilis [29]): 2.48 mm; zone of inhibition at 300 µg/mL (Exserohilum rostratum [30]): 3.25 mm; zone of inhibition at 600 µg/mL (Klebsiella pneumoniae [31]): 2.04 mm; zone of inhibition at 900 µg/mL (Exserohilum rostratum [32]): 14.6 mm; zone of inhibition at 900 µg/mL (Priestia megaterium [33]): 8.4 mm; growth inhibition (GI) (Candida albicans [34]): inactive; growth inhibition (GI) (Candida albicans [35]): inactive; zone of inhibition at 900 µg/mL (Proteus vulgaris [36]): 8.09 mm |
